Data reported in patent publication US20200069691A1, “HETEROCYCLIC COMPOUNDS AS HIV PROTEASE INHIBITORS” (Merck Sharp & Dohme Corp., priority 2016, published 2020).

Biological target: T1, wild-type HIV-1 protease (Human immunodeficiency virus type 1 group M subtype B, UniProt P04585)
T1 construct: Escherichia coli expressed wild-type HIV-1 protease protein
Test: Assay for Inhibition of Microbial Expressed HIV Protease (peptide substrate cleavage, LC-MS/MS readout)
Format: biochemical
Conditions: E. coli expressed wild-type HIV-1 protease, mean of at least two independent experiments, read-out: HIV Pr Enzyme HIV1 PR IC50
Protocol: Assay for Inhibition of Microbial Expressed HIV Protease
Inhibition of Escherichia coli expressed wild-type HIV-1 protease protein was carried out with a peptide substrate [Val-Ser-Gln-Asn-(βnaphtyl)Ala-Pro-Ile-Val]. The inhibitor compound was preincubated with HIV-1 protease enzyme in assay buffer (50 mM sodium acetate, pH 5.5, 100 mM NaCl, and 0.1% BSA) for 30 minutes at room temperature. Peptide substrate was added to 400 μM in a total volume of 20 μL containing […] HIV-1 protease (final) after which the reaction was incubated for 1 hour at 30° C. […] The extent of inhibition of the reaction was determined from the peak area of the products.
Data shown in the table reflects the mean of at least two independent experiments.

Row | SMILES | IC50
1 | CN1CCN(c2cncc(-c3ncc4c(n3)CN(C(=O)c3cc(CN5C(=N)N[C@](CCCC(F)(F)F)(c6ccc(F)cc6)C5=O)ccc3C(F)(F)F)C4)c2)CC1 [Compound 25, (5R)-5-(4-fluorophenyl)-2-imino-3-[3-({2-[5-(4-methylpiperazin-1-yl)pyridin-3-yl]-5,7-dihydro-6H-pyirolo[3,4-d]pyrimidin-6-yl}carbonyl)-4-(trifluoromethyl)benzyl]-5-(4,4,4-trifluorobutyl)imidazolidin-4-one] | 2.59 nM
2 | N=C1NC(CCC2CC2)(c2cccc(F)c2)C(=O)N1Cc1ccc(C(F)(F)F)c(C(=O)N2Cc3nccnc3C2)c1 (centres unmarked) [Compound 26, 5-(2-cyclopropylethyl)-3-[3-(5,7-dihydro-6H-pyrrolo[3,4-b]pyrazin-6-ylcarbonyl)-4-(trifluoromethyl)benzyl]-5-(3-fluorophenyl)-2-iminoimidazolidin-4-one] | 2.85 nM
3 | Cc1n[nH]cc1-c1ncc2c(n1)CN(C(=O)c1cc(CN3C(=N)N[C@](CCCC(F)(F)F)(c4ccc(F)cc4)C3=O)ccc1C(F)(F)F)C2 [Compound 27, (5R)-5-(4-fluorophenyl)-2-imino-3-[3-{[2-(3-methyl-1H-pyrazol-4-yl)-5,7-dihydro-6H-pyrrolo[3,4-d]pyrimidin-6-yl]carbonyl}-4-(trifluoromethyl)benzyl]-5-(4,4,4-trifluorobutyl)imidazolidin-4-one] | 2.88 nM
4 | N=C1N[C@](CCCC(F)(F)F)(c2ccc(F)cc2)C(=O)N1Cc1ccc(C(F)(F)F)c(C(=O)N2Cc3cnc(-c4cnn5c4CCCC5)nc3C2)c1 [Compound 28, (5R)-5-(4-fluorophenyl)-2-imino-3-[3-{[2-(4,5,6,7-tetrahydropyrazolo-[1,5-a]pyridin-3-yl)-5,7-dihydro-6H-pyrrolo[3,4-d]pyrimidin-6-yl]carbonyl}-4-(trifluoromethyl)-benzyl]-5-(4,4,4-trifluorobutyl)imidazolidin-4-one] | 3.04 nM
5 | CC(C)CC(c1ccc(C(F)(F)F)c(C(=O)N2CCn3c(nnc3C(F)(F)F)C2)c1)N1C(=N)N[C@@](C[C@@H]2CCOC2)(c2ccc(F)cc2)C1=O (stereo partly drawn) [Compound 29, (5S)-5-(4-fluorophenyl)-2-imino-3-{3-methyl-1-[4-(trifluoromethyl)-3-{[3-(trifluoromethyl)-5,6-dihydro-[1,2,4]triazolo[4,3-a]pyrazin-7(8H)-yl]carbonyl}phenyl]butyl}-5-[(3R)-tetrahydrofuran-3-ylmethyl]-imidazolidin-4-one] | 3.07 nM
6 | CC(C)CC[C@]1(c2ccccc2)NC(=N)N(Cc2ccc(C(F)(F)F)c(C(=O)N3Cc4nccnc4C3)c2)C1=O [Compound 30, (5R)-3-[3-(5,7-dihydro-6H-pyrrolo[3,4-b]pyrazin-6-ylcarbonyl)-4-(trifluoromethyl)-benzyl]-2-iirrino-5-(3-methylbutyl)-5-phenylimidazolidin-4-one] | 3.08 nM
7 | CC(C)CC[C@]1(c2ccccc2)NC(=N)N(C(CC(C)C)c2ccc(C(F)(F)F)c(C(=O)N3Cc4nccnc4C3)c2)C1=O (stereo partly drawn) [Compound 31, (5R)-3-{1-[3-(5,7-dihydro-6H-pyrrolo[3,4-b]pyrazin-6-ylcarbonyl)-4-(trifluoromethyl)-phenyl]-3-methylbutyl}-2-imino-5-(3-methylbutyl)-5-phenylimidazolidin-4-one] | 3.13 nM
8 | N=C1N[C@](CCCC(F)(F)F)(c2ccc(F)cc2)C(=O)N1Cc1ccc(C(F)(F)F)c(C(=O)N2Cc3cnc(-c4ccc5ncnn5c4)nc3C2)c1 [Compound 32, (5R)-5-(4-fluorophenyl)-2-imino-3-{3-[(2-[1,2,4]triazolo[1,5-a]pyridin-6-yl-5,7-dihydro-6H-pyrrolo[3,4-d]pyrimidin-6-yl)carbonyl]-4-(trifluoromethyl)benzyl}-5-(4,4,4-trifluorobutyl)imidazolidin-4-one] | 3.21 nM
9 | N=C1N[C@](CCCC(F)(F)F)(c2ccc(F)cc2)C(=O)N1Cc1ccc(C(F)(F)F)c(C(=O)N2Cc3cnc(-c4cnn(CCN5CCOCC5)c4)nc3C2)c1 [Compound 33, (5R)-5-(4-fluorophenyl)-2-imino-3-[3-({2-[1-(2-morpholin-4-ylethyl)-1H-pyrazol-4-yl]-5,7-dihydro-6H-pyrrolo[3,4-d]pyrimidin-6-yl}carbonyl)-4-(trifluoromethyl)-benzyl]-5-(4,4,4-trifluorobutyl)-imidazolidin-4-one] | 3.26 nM
10 | N=C1N[C@](CCCC(F)(F)F)(c2ccc(F)cc2)C(=O)N1Cc1ccc(C(F)(F)F)c(C(=O)N2Cc3cnc(-c4cnn5c4CCC5)nc3C2)c1 [Compound 34, (5R)-3-[3-{[2-(5,6-dihydro-4H-pyrrolo[1,2-b]pyrazol-3-yl)-5,7-dihydro-6H-pyrrolo[3,4-d]pyrimidin-6-yl]carbonyl}-4-(trifluoromethyl)benzyl]-5-(4-fluorophenyl)-2-imino-5-(4,4,4-trifluorobutyl)imidazolidin-4-one] | 3.36 nM
11 | N=C1N[C@](CCCC(F)(F)F)(c2ccc(F)cc2)C(=O)N1Cc1ccc(C(F)(F)F)c(C(=O)N2Cc3cnc(Cl)nc3C2)c1 [Compound 35, (5R)-3-{3-[(2-chloro-5,7-dihydro-6H-pyrrolo[3,4-d]pyrimidin-6-yl)carbonyl]-4-(trifluoromethyl)-benzyl}-5-(4-fluorophenyl)-2-imino-5-(4,4,4-trifluorobutyl)-imidazolidin-4-one] | 3.42 nM
12 | N=C1N[C@](CCCC(F)(F)F)(c2ccc(F)cc2)C(=O)N1Cc1ccc(C(F)(F)F)c(C(=O)N2Cc3cnc(N[C@@H]4CCOC4)nc3C2)c1 [Compound 36, (5R)-5-(4-fluorophenyl)-2-imino-3-[3-({2-[(3R)-tetrahydrofuran-3-ylamino]-5,7-dihydro-6H-pyrrolo[3,4-d]pyrimidin-6-yl}carbonyl)-4-(trifluoromethyl)-benzyl]-5-(4,4,4-trifluorobutyl)-imidazolidin-4-one] | 3.51 nM
13 | N=C1N[C@](CCC2CC2)(c2ccc(F)cc2)C(=O)N1C(CCc1ccccc1)c1ccc(C(F)(F)F)c(C(=O)N2CCn3c(nnc3C(F)(F)F)C2)c1 (stereo partly drawn) [Compound 37, (5R)-5-(2-cyclopropylethyl)-5-(4-fluorophenyl)-2-imino-3-{3-phenyl-1-[4-(trifluoromethyl)-3-{[3-(trifluoromethyl)-5,6-dihydro-[1,2,4]triazolo[4,3-a]pyrazin-7(8H)-yl]carbonyl}phenyl]propyl} imidazolidin-4-one] | 3.89 nM
14 | CC(C)OCC(c1ccc(C(F)(F)F)c(C(=O)N2Cc3nccnc3C2)c1)N1C(=N)N[C@](CCC2CC2)(c2ccc(F)cc2)C1=O (stereo partly drawn) [Compound 38, (5R)-5-(2-cyclopropylethyl)-3-{1-[3-(5,7-dihydro-6H-pyrrolo[3,4-b]pyrazin-6-ylcarbonyl)-4-(trifluoromethyl)phenyl]-2-(1-methylethoxy)ethyl}-5-(4-fluorophenyl)-2-iminoimidazolidin-4-one] | 4.03 nM
15 | N=C1N[C@](CCCC(F)(F)F)(c2ccc(F)cc2)C(=O)N1Cc1ccc(C(F)(F)F)c(C(=O)N2Cc3cnc(-c4cnc5[nH]ccc5c4)nc3C2)c1 [Compound 39, (5R)-5-(4-fluorophenyl)-2-imino-3-[3-{[2-(1H-pyrrolo[2,3-b]pyridin-5-yl)-5,7-dihydro-6H-pyrrolo[3,4-d]pyrimidin-6-yl]carbonyl}-4-(trifluoromethyl)benzyl]-5-(4,4,4-trifluorobutyl)imidazolidin-4-one] | 4.1 nM
16 | N=C1N[C@](CCCC(F)(F)F)(c2ccc(F)cc2)C(=O)N1Cc1ccc(C(F)(F)F)c(C(=O)N2Cc3cnc(-c4cccc(-c5ccn[nH]5)c4)nc3C2)c1 [Compound 40, (5R)-5-(4-fluorophenyl)-2-imino-3-[3-({2-[3-(1H-pyrazol-5-yl)phenyl]-5,7-dihydro-6H-pyrrolo[3,4-d]pyrimidin-6-yl}carbonyl)-4-(trifluoromethyl)benzyl]-5-(4,4,4-trifluorobutyl)imidazolidin-4-one] | 4.13 nM
17 | Cn1ccc2c(-c3ncc4c(n3)CN(C(=O)c3cc(CN5C(=N)N[C@](CCCC(F)(F)F)(c6ccc(F)cc6)C5=O)ccc3C(F)(F)F)C4)cccc21 [Compound 41, (5R)-5-(4-fluorophenyl)-2-imino-3-[3-{[2-(1-methyl-1H-indol-4-yl)-5,7-dihydro-6H-pyrrolo[3,4-d]pyrimidin-6-yl]carbonyl}-4-(trifluoromethyl)benzyl]-5-(4,4,4-trifluorobutyl)imidazolidin-4-one] | 4.23 nM
18 | CC(C)CC(c1ccc(C(F)(F)F)c(C(=O)N2CCn3c(nnc3C(F)(F)F)C2)c1)N1C(=N)N[C@](C[C@@H]2CCOC2)(c2ccc(F)cc2)C1=O (stereo partly drawn) [Compound 42, (5R)-5-(4-fluorophenyl)-2-imino-3-{3-methyl-1-[4-(trifluoromethyl)-3-{[3-(trifluoromethyl)-5,6-dihydro-[1,2,4]triazolo[4,3-a]pyrazin-7(8H)-yl]carbonyl}phenyl]butyl}-5-[(3R)-tetrahydrofuran-3-ylmethyl]-imidazolidin-4-one] | 4.26 nM
19 | Cn1ncc2cc(-c3ncc4c(n3)CN(C(=O)c3cc(CN5C(=N)N[C@](CCCC(F)(F)F)(c6ccc(F)cc6)C5=O)ccc3C(F)(F)F)C4)ccc21 [Compound 43, (5R)-5-(4-fluorophenyl)-2-imino-3-[3-{[2-(1-methyl-1H-indazol-5-yl)-5,7-dihydro-6H-pyrrolo[3,4-d]pyrimidin-6-yl]carbonyl}-4-(trifluoromethyl)benzyl]-5-(4,4,4-trifluorobutyl)imidazolidin-4-one] | 4.47 nM
20 | CS(=O)(=O)Nc1cccc(-c2ncc3c(n2)CN(C(=O)c2cc(CN4C(=N)N[C@](CCCC(F)(F)F)(c5ccc(F)cc5)C4=O)ccc2C(F)(F)F)C3)c1 [Compound 44, N-[3-(6-{[5-{[(4R)-4-(4-fluorophenyl)-2-imino-5-oxo-4-(4,4,4-trifluorobutyl)imidazolidin-1-yl]methyl}-2-(trifluoromethyl)-phenyl]carbonyl}-6,7-dihydro-5H-pyrrolo[3,4-d]pyrimidin-2-yl)phenyl]methanesulfonamide] | 4.55 nM
